{"source": "patent US8133872B2", "about": "(Industrial Cooperation Foundation, Chonbuk National …, priority 2008, dated 2012)", "key": {"pancreatic β-islet cells": {"test_system": "pancreatic β-islet cells", "experiment": "Insulin secretion from isolated mouse pancreatic islets treated with NAADP (radioimmunoassay)", "type": "cell-based, mice", "method": "The isolation of pancreatic islets from six, 8-week-old ICR mice (Orientbio Inc., Seongnam-si, Korea) weighing 25-30 g was carried out according to the method of Lacy and Kotianovsky (Diabetes, 16, 35-39, 1967) in the following manner. Mice were sacrificed by cervical dislocation, and the peritoneum was incised. Hank's balanced salt solution (HBSS, Gibco, USA) containing 1 mg/mL of collagenase (Sigma, USA) was infused into the bile duct to inflate the pancreas, and then the pancreas was isolated. The isolated pancreas was incubated at 37° C. for 20 minutes, and then homogeneously agitated. The agitated solution was washed with HBSS to remove acinar cells, and then pancreatic islets of a given size were separated from the solution under stereoscopic binocular microscope. […] The concentration of insulin in the supernatant from which the pancreatic β-islet cells have been removed was measured. The measurement of the insulin concentration was carried out by radioimmunoassay using an insulin measurement kit (Diagnostic Products Corp., USA).\nInsulin secretion from the mouse pancreatic β-islet cells after treatment by 0 nM and 50 nM at extracellular glucose concentrations maintained at 2.8 mM and 12 mM was measured, and the measurement results are shown in FIG. 1."}, "[1]": {"test_system": "type-2 diabetic mice (C57BL/KsJ-db/db Jcl)", "experiment": "Glucose tolerance test (blood glucose after glucose load) in type-2 diabetic mice given NAADP by osmotic mini-pump", "type": "in vivo", "from_the_text": "Seven-week-old type-2 diabetic mice were divided into a control group (five animals) and test groups and tested using an osmotic mini-pump in the following manner. […] Then, the NAADP solution was infused into the abdominal cavity of the mice according to the method described in the supplier's manual."}, "[2]": {"test_system": "type-2 diabetic mice (C57BL/KsJ-db/db Jcl)", "experiment": "Serum insulin after glucose load in type-2 diabetic mice given NAADP (insulin RIA kit)", "type": "in vivo", "method": "The same test method as described in Example 2 was used, and 50 μl of blood was collected from the tail vein just before glucose load. At 30 minutes (showing the highest blood glucose level after glucose load) and at 120 minutes (showing the lowest blood glucose level after glucose load), the same amount of blood was collected and coagulated, and serum was separated from the blood. The separated serum was measured for insulin concentration using an insulin RIA kit (Linco Research Inc., USA)."}, "[3]": {"test_system": "pancreatic islet cells of type-2 diabetic mice", "experiment": "Immunohistochemical (anti-insulin antibody) and hematoxylin-eosin staining of pancreatic islets", "type": "in vivo", "conditions": "1 mg/kg/day for 3 weeks, FIG. 4", "method": "After 120 minutes, the mice were sacrificed by cervical dislocation, and then immediately the peritoneum was incised. Then, the intestinal and pancreatic tissues were collected and fixed in 4% paraformaldehyde solution (solvent-phosphate buffer; pH 7.4; Sigma, USA) for 12 hours or more. Then, the pancreatic tissue was separated from the intestinal or adipose tissue, and the separated tissue was washed three times or more with a fresh fixture and then processed into paraffin-embedded tissue according to a conventional method.\nTissue sections were cut from the paraffin-embedded tissue at 5-μm intervals using a microtome (Shandon, Germany) and applied to slides coated with poly-L-lysine (Sigma, USA) before use in immunohistochemical staining. In order to remove paraffin from the pancreatic tissue-coated slides, sections were deparaffinized with xylene (Junsei, Japan) for 5 minutes to remove paraffin. Then, the sections were hydrated in 100-70% alcohol series and allowed to stand in phosphate buffer (pH 7.4) for 5 minutes. Then, the sections were treated with 3% hydrogen peroxide to remove intrinsic peroxidase, and then allowed to react with anti-insulin antibody (Dako, USA) at 4° C. for 12 hours. Then, the section samples were subjected to immunohistochemical staining with anti-insulin antibody using an immunohistochemical staining kit (A.B.I., Jeonju-si, Korea). […]"}, "[4]": {"conditions": "1 mg/kg/day NAADP by osmotic mini-pump, fasting from 13 hours before testing"}, "[5]": {"conditions": "1 mg/kg/day NAADP by osmotic mini-pump, sera at 0, 30 and 120 min"}}, "note": "Entries after “also recorded” stand apart in the source; their conditions may differ.", "data": [{"substance": "nicotinic acid adenine dinucleotide phosphate [NAADP]", "values": [{"measurement": "insulin secretion from pancreatic β-islet cells", "setting": "pancreatic β-islet cells; 50 nM NAADP, glucose 12 mM, 37° C., FIG. 1", "value": "great increase in insulin secretion"}, {"measurement": "NAADP concentration essential for stimulating insulin secretion from pancreatic β-islet cells", "setting": "pancreatic β-islet cells; in the presence of glucose", "value": "5 to 500", "unit": "nM"}, {"measurement": "time at which blood glucose returned to the fasting blood glucose level after glucose load", "setting": "[1]; [4]", "value": 120, "unit": "min"}, {"measurement": "time of blood glucose peak after glucose load", "setting": "[1]; [4]", "value": 30, "unit": "min"}, {"measurement": "blood glucose levels", "setting": "[1]; 1 mg/kg/day intraperitoneally by osmotic mini-pump, 3 weeks, type-2 diabetic mice, FIG. 2", "value": "clear decrease in blood glucose levels; also recorded: clear effect of lowering the blood glucose levels"}, {"measurement": "blood insulin level after the peak, up to 120 minutes after glucose load", "setting": "[2]; [5]", "value": "maintained at a constant level"}, {"measurement": "time of blood insulin peak after glucose load", "setting": "[2]; [5]", "value": 30, "unit": "min"}, {"measurement": "blood insulin concentration", "setting": "[2]; 1 mg/kg/day, at 3 weeks (10-week-old), after glucose load, FIG. 3", "value": "clear increase in blood insulin concentration"}, {"measurement": "hematoxylin-eosin staining: capsules covering the pancreatic islets and β-islet cells", "setting": "[3]", "value": "clustered together"}, {"measurement": "positive response of pancreatic β-islet cells to anti-insulin antibody", "setting": "[3]; compared to control group", "value": "clearly increased"}]}]}
